# Read-outs that look alike come from different tables or passages of the source.
# Legend:
# Type in all cases: cell-based
# [1] = system: IFN-g secretion from T cells in human whole blood
# [2] = target: hKv1.3 (Homo sapiens, UniProt P22001); assay: cell-based
# [3] = system: IL-2 secretion from T cells in human whole blood; settings: read-out: WB (IL-2) IC50 (nM, Avg)
# [4] = read-out: WB (IFNg) IC50 (nM, Avg)
# [5] = read-out: WB (IFNg) IC5- (nM, Avg)
# Sequence of hKv1.3 (P22001 whole entry): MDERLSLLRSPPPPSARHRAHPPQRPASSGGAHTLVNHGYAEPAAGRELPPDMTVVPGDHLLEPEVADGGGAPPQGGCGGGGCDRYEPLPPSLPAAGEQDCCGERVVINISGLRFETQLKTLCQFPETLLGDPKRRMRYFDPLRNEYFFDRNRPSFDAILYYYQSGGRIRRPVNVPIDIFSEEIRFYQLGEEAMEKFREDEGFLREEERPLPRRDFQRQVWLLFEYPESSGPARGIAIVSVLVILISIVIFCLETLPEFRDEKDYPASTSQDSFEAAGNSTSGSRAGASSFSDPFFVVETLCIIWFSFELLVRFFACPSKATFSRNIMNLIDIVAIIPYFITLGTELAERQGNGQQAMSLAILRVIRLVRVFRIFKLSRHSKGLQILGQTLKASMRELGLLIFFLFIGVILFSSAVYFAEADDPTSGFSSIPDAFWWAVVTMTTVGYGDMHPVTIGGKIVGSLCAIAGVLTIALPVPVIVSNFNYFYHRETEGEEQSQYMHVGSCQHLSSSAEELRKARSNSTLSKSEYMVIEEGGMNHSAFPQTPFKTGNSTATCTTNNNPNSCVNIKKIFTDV
Compound,"IC50 [1, 4] [nM]","IC50 ([2]; Kv1.3 (IWQ) IC50 (nM, Avg)) [nM]",IC50 [3] [nM],"IC50 [1, 5] [nM]","IC50 ([2]; read-out: Kv1.3 (IWQ) IC50 (nM, Avg)) [nM]"
"CC[C@H](C)[C@@H]1NC(=O)[C@H]([C@@H](C)O)NC(=O)[C@H](CC(=O)O)NC(=O)[C@H](CCC(=O)O)NC(=O)[C@@H](NC(=O)[C@H](CO)NC(=O)[C@@H](N)CCCNC(=N)N)CSSC[C@@H](C(N)=O)NC(=O)[C@H]([C@@H](C)O)NC(=O)CNC(=O)[C@@H]2CSSC[C@@H]3NC(=O)[C@H](CCCCN)NC(=O)[C@H](Cc4ccccc4)NC(=O)[C@H](C)NC(=O)[C@H]([C@@H](C)O)NC(=O)[C@H](CSSC[C@H](NC(=O)[C@H](Cc4ccccc4)NC(=O)[C@H](CO)NC(=O)[C@H](CC(C)C)NC(=O)[C@H](CCCNC(=N)N)NC(=O)[C@H](Cc4ccc(O)cc4)NC(=O)[C@H](CCCCN)NC(=O)[C@H]([C@@H](C)O)NC(=O)[C@H](CO)NC(=O)[C@H](Cc4c[nH]cn4)NC(=O)[C@H](CCCCN)NC3=O)C(=O)N[C@@H](CCCNC(=N)N)C(=O)N[C@@H](CCCCN)C(=O)N[C@@H]([C@@H](C)O)C(=O)N2)NC(=O)[C@H](CCCNC(=N)N)NC(=O)[C@H](CO)NC(=O)[C@H](CCCCN)NC(=O)[C@@H]2CCCN2C1=O [[Glu4, Lys16,Thr21]ShK-amide]",3.94,0.085,1.38,,
"CC[C@H](C)[C@@H]1NC(=O)[C@@H](NC(=O)[C@H](CO)NC(=O)[C@@H](N)CCCNC(=N)N)CSSC[C@@H](C(N)=O)NC(=O)[C@H]([C@@H](C)O)NC(=O)CNC(=O)[C@@H]2CSSC[C@@H]3NC(=O)[C@H](CCCCN)NC(=O)[C@H](Cc4ccccc4)NC(=O)[C@H](C)NC(=O)[C@H]([C@@H](C)O)NC(=O)[C@H](CSSC[C@H](NC(=O)[C@H](Cc4ccccc4)NC(=O)[C@H](CO)NC(=O)[C@H](CC(C)C)NC(=O)[C@H](CCCNC(=N)N)NC(=O)[C@H](Cc4ccc(O)cc4)NC(=O)[C@H](CCCCN)NC(=O)[C@H](CCSC)NC(=O)[C@H](CO)NC(=O)[C@H](Cc4c[nH]cn4)NC(=O)[C@H](CCCCN)NC3=O)C(=O)N[C@@H](CCCNC(=N)N)C(=O)N[C@@H](CCCNC(=N)N)C(=O)N[C@@H]([C@@H](C)O)C(=O)N2)NC(=O)[C@H](CCCNC(=N)N)NC(=O)[C@H](CO)NC(=O)[C@H](CCCCN)NC(=O)[C@@H]2CCCN2C(=O)[C@H]([C@@H](C)CC)NC(=O)[C@H]([C@@H](C)O)NC(=O)[C@H](CC(=O)O)NC1=O [[Lys16,Arg30]ShK-amide]",0.236,0.129,0.151,,
CC[C@H](C)[C@@H]1NC(=O)[C@H]([C@@H](C)O)NC(=O)[C@H](CC(=O)O)NC(=O)[C@H](CCC(=O)O)NC(=O)[C@@H](NC(=O)[C@H](CO)NC(=O)[C@@H](N)CCCNC(=N)N)CSSC[C@@H](C(=O)O)NC(=O)[C@H]([C@@H](C)O)NC(=O)CNC(=O)[C@@H]2CSSC[C@@H]3NC(=O)[C@H](CCC(N)=O)NC(=O)[C@H](Cc4ccccc4)NC(=O)[C@H](C)NC(=O)[C@H]([C@@H](C)O)NC(=O)[C@H](CSSC[C@H](NC(=O)[C@H](Cc4ccccc4)NC(=O)[C@H](CO)NC(=O)[C@H](CC(C)C)NC(=O)[C@H](CCCNC(=N)N)NC(=O)[C@H](Cc4ccc(O)cc4)NC(=O)[C@H](CCCCN)NC(=O)[C@H](CCSC)NC(=O)[C@H](CO)NC(=O)[C@H](Cc4c[nH]cn4)NC(=O)[C@H](CCCCN)NC3=O)C(=O)N[C@@H](CCCNC(=N)N)C(=O)N[C@@H](CCCCN)C(=O)N[C@@H]([C@@H](C)O)C(=O)N2)NC(=O)[C@H](CCCNC(=N)N)NC(=O)[C@H](CO)NC(=O)[C@H](CCCCN)NC(=O)[C@@H]2CCCN2C1=O [[Glu4]ShK],,0.07,0.031,0.049,
CC[C@H](C)[C@@H]1NC(=O)[C@@H](NC(=O)[C@H](CO)NC(=O)[C@@H](N)CCCNC(=N)N)CSSC[C@@H](C(=O)O)NC(=O)[C@H]([C@@H](C)O)NC(=O)CNC(=O)[C@@H]2CSSC[C@@H]3NC(=O)[C@H](CCC(N)=O)NC(=O)[C@H](Cc4ccccc4)NC(=O)[C@H](C)NC(=O)[C@H]([C@@H](C)O)NC(=O)[C@H](CSSC[C@H](NC(=O)[C@H](Cc4ccccc4)NC(=O)[C@H](CO)NC(=O)[C@H](C)NC(=O)[C@H](CCCNC(=N)N)NC(=O)[C@H](Cc4ccc(O)cc4)NC(=O)[C@H](CCCCN)NC(=O)[C@H](CCSC)NC(=O)[C@H](CO)NC(=O)[C@H](Cc4c[nH]cn4)NC(=O)[C@H](CCCCN)NC3=O)C(=O)N[C@@H](CCCNC(=N)N)C(=O)N[C@@H](CCCCN)C(=O)N[C@@H]([C@@H](C)O)C(=O)N2)NC(=O)[C@H](CCCNC(=N)N)NC(=O)[C@H](CO)NC(=O)[C@H](CCCCN)NC(=O)[C@@H]2CCCN2C(=O)[C@H]([C@@H](C)CC)NC(=O)[C@H]([C@@H](C)O)NC(=O)[C@H](CC(=O)O)NC1=O [[Ala25]ShK],0.408,0.116,0.195,,
"CC[C@H](C)[C@@H]1NC(=O)[C@@H](NC(=O)[C@H](CO)NC(=O)[C@@H](N)CCCNC(=N)N)CSSC[C@@H](C(N)=O)NC(=O)[C@H]([C@@H](C)O)NC(=O)CNC(=O)[C@@H]2CSSC[C@@H]3NC(=O)[C@H](CCCCN)NC(=O)[C@H](Cc4ccccc4)NC(=O)[C@H](C)NC(=O)[C@H]([C@@H](C)O)NC(=O)[C@H](CSSC[C@H](NC(=O)[C@H](Cc4ccccc4)NC(=O)[C@H](CO)NC(=O)[C@H](CC(C)C)NC(=O)[C@H](CCCNC(=N)N)NC(=O)[C@H](Cc4ccc(O)cc4)NC(=O)[C@H](CCCCN)NC(=O)[C@H](C(C)C)NC(=O)[C@H](CO)NC(=O)[C@H](Cc4c[nH]cn4)NC(=O)[C@H](CCCCN)NC3=O)C(=O)N[C@@H](CCCNC(=N)N)C(=O)N[C@@H](CCCCN)C(=O)N[C@@H]([C@@H](C)O)C(=O)N2)NC(=O)[C@H](CCCNC(=N)N)NC(=O)[C@H](CO)NC(=O)[C@H](CCCCN)NC(=O)[C@@H]2CCCN2C(=O)[C@H]([C@@H](C)CC)NC(=O)[C@H]([C@@H](C)O)NC(=O)[C@H](CC(=O)O)NC1=O [[Lys16, VaI21]ShK-amide]",6.65,0.344,4.8,,
CC[C@H](C)[C@@H]1NC(=O)[C@@H](NC(=O)[C@H](CO)NC(=O)[C@@H](N)CCCNC(=N)N)CSSC[C@@H](C(=O)O)NC(=O)[C@H]([C@@H](C)O)NC(=O)CNC(=O)[C@@H]2CSSC[C@@H]3NC(=O)[C@H](CCC(N)=O)NC(=O)[C@H](Cc4ccccc4)NC(=O)[C@H](C)NC(=O)[C@H]([C@@H](C)O)NC(=O)[C@H](CSSC[C@H](NC(=O)[C@H](Cc4ccccc4)NC(=O)[C@H](CO)NC(=O)[C@H](CC(C)C)NC(=O)[C@H](CCCNC(=N)N)NC(=O)[C@H](Cc4ccc(O)cc4)NC(=O)[C@H](CCCCN)NC(=O)[C@H](CCSC)NC(=O)[C@H](CO)NC(=O)[C@H](Cc4c[nH]cn4)NC(=O)[C@H](CCCCN)NC3=O)C(=O)N[C@@H](CCCNC(=N)N)C(=O)N[C@@H](CCC(=O)O)C(=O)N[C@@H]([C@@H](C)O)C(=O)N2)NC(=O)[C@H](CCCNC(=N)N)NC(=O)[C@H](CO)NC(=O)[C@H](CCCCN)NC(=O)[C@@H]2CCCN2C(=O)[C@H]([C@@H](C)CC)NC(=O)[C@H]([C@@H](C)O)NC(=O)[C@H](CC(=O)O)NC1=O [[Glu30]ShK],,0.272,0.019,0.043,
"CC[C@H](C)[C@@H]1NC(=O)[C@@H](NC(=O)[C@H](CO)NC(=O)[C@@H](N)CCCNC(=N)N)CSSC[C@@H](C(N)=O)NC(=O)[C@H]([C@@H](C)O)NC(=O)CNC(=O)[C@@H]2CSSC[C@@H]3NC(=O)[C@H](CCCCN)NC(=O)[C@H](Cc4ccccc4)NC(=O)[C@H](C)NC(=O)[C@H]([C@@H](C)O)NC(=O)[C@H](CSSC[C@H](NC(=O)[C@H](Cc4ccc5ccccc5c4)NC(=O)[C@H](CO)NC(=O)[C@H](CC(C)C)NC(=O)[C@H](CCCNC(=N)N)NC(=O)[C@H](Cc4ccc(O)cc4)NC(=O)[C@H](CCCCN)NC(=O)[C@H](CCSC)NC(=O)[C@H](CO)NC(=O)[C@H](Cc4c[nH]cn4)NC(=O)[C@H](CCCCN)NC3=O)C(=O)N[C@@H](CCCCN)C(=O)N[C@@H](CCCCN)C(=O)N[C@@H]([C@@H](C)O)C(=O)N2)NC(=O)[C@H](CCCNC(=N)N)NC(=O)[C@H](CO)NC(=O)[C@H](CCCCN)NC(=O)[C@@H]2CCCN2C(=O)[C@H]([C@@H](C)CC)NC(=O)[C@H]([C@@H](C)O)NC(=O)[C@H](CC(=O)O)NC1=O [[Lys16, 29;2-Nal27]ShK-amide]",24.7,10.1,13.1,,
30kDaPEG-ShK,2.42,,0.372,,1.93
CC[C@H](C)[C@@H]1NC(=O)[C@@H](NC(=O)[C@H](CO)NC(=O)[C@@H](N)CCCNC(=N)N)CSSC[C@@H](C(=O)O)NC(=O)[C@H]([C@@H](C)O)NC(=O)CNC(=O)[C@@H]2CSSC[C@@H]3NC(=O)[C@H](CCC(N)=O)NC(=O)[C@H](Cc4ccccc4)NC(=O)[C@H](C)NC(=O)[C@H]([C@@H](C)O)NC(=O)[C@H](CSSC[C@H](NC(=O)[C@H](CCCNC(=N)N)NC(=O)[C@H](CO)NC(=O)[C@H](CC(C)C)NC(=O)[C@H](CCCNC(=N)N)NC(=O)[C@H](Cc4ccc(O)cc4)NC(=O)[C@H](CCCCN)NC(=O)[C@H](CCSC)NC(=O)[C@H](CO)NC(=O)[C@H](Cc4c[nH]cn4)NC(=O)[C@H](CCCCN)NC3=O)C(=O)N[C@@H](CCCNC(=N)N)C(=O)N[C@@H](CCCCN)C(=O)N[C@@H]([C@@H](C)O)C(=O)N2)NC(=O)[C@H](CCCNC(=N)N)NC(=O)[C@H](CO)NC(=O)[C@H](CCCCN)NC(=O)[C@@H]2CCCN2C(=O)[C@H]([C@@H](C)CC)NC(=O)[C@H]([C@@H](C)O)NC(=O)[C@H](CC(=O)O)NC1=O [[Arg27]ShK],59.7,100,13,,
